# Measured values reported in patent US4013657A, “O-ethyl-S-n-propyl-O-[pyridaz-(6)-on-(3)-yl]-thionothiolphosphoric acid esters” (priority 1973, dated 1977).
# Like-named read-outs stand apart in the source and are kept apart here.
# Legend:
# [1] = Toxicity test, albino rat/peroral; settings: in vivo, po; albino rat; peroral; evaluation after 7 days
# Experimental: Test animal: Albino rat (Rattus norvegicus)
# To produce a suitable preparation of active compound, 3 parts by weight of active compound were mixed with 2.8 parts by weight of highly disperse silica and 4.2 parts by weight of talc. Suspensions, which contained, in 1 ml of liquid, the amount of active compound to be adminstered per 100 g of animal weight, were prepared from the above active-compound concentrate, with addition of a little powdered vegetable gum, by trituration with water. The dosage was measured out volumetrically after weighing the test animals. It was administered orally by means of a steel knob-ended probe. The results were in each case evaluated at the end of the above-mentioned interval of time, calculated from the administration of the active compound.
# The LD50 values (dose of active compound which kills 50% of the treated animals) was determined from the mortality values of the dose which were varied in geometrical progression, in the usual manner.
# The active compounds and LD50 values can be seen from Table 5 which follows.
# [2] = system: fly larvae (Lucilia cuprina); assay: Test with parasitic fly larvae/Lucilia cuprina res.; assay type: in vivo; settings: after 24 hours, resistant larvae, read-out: Degree of destruction in %; for mortality at 10 ppm: active compound concentration 10 ppm; for mortality at 30 ppm: active compound concentration 30 ppm; for mortality at 100 ppm: active compound concentration 100 ppm
# Experimental: Test with parasitic fly larvae
# 35 parts by weight of ethylene polyglycol monomethyl ether
# 35 parts by weight of nonylphenol polyglycol ether
# To produce a suitable preparation of active compound, 30 parts by weight of the active substance in question were mixed with the stated amount of solvent which contained the above-mentioned proportion of emulsifier and the concentrate thus obtained was diluted with water to the desired concentration.
# About 20 fly larvae (Lucilia cuprina) were introduced into a test tube which contained approximately 2 ml of horse muscle. 0.5 ml of the preparation of active compound was applied to this horse meat. After 24 hours, the degree of destruction in % was determined. 100% means that all the larvae had been killed and 0% means that no larvae had been killed.
# [3] = system: two-spotted spider mite (Tetranychus urticae); assay: Tetranychus test (resistant); assay type: in vivo; settings: 48 h, after 2 days, resistant mites, read-out: Degree of destruction in % after 2 days; for mortality at 0.01 %: active compound concentration 0.01 %; for mortality at 0.1 %: active compound concentration 0.1 %
# Experimental: Tetranychus test (resistant)
# (§1) Solvent: 3 parts by weight of acetone
# (§2) Emulsifier: 1 part by weight of alkylaryl polyglycol ether
# (§3) To produce a suitable preparation of active compound, 1 part by weight of the active compound was mixed with the stated amount of solvent containing the stated amount of emulsifier and the concentrate was diluted with water to the desired concentration.
# These bean plants were heavily infested with the two-spotted spider mite (Tetranychus urticae) in all stages of development.
# After the specified periods of time, the effectiveness of the preparation of active compound was determined by counting the dead mites. The degree of destruction thus obtained was expressed as a percentage: 100% means that all the spider mites were killed whereas 0% means that none of the spider mites were killed.
# The active compounds, the concentrations of the active compounds, the evaluation times and the results can be seen from the following Table 3: […]
# [4] = system: vinegar flies (Drosophila melanogaster); assay: Drosophila test; assay type: in vivo; settings: 24 h, read-out: Degree of destruction in % after 1 day; for mortality at 0.01 %: active compound concentration 0.01 %
# Experimental: as §1, §2
# To produce a suitable preparation of active compound, 1 part by weight of the active compound was mixed with the stated amount of solvent containing the stated amount of emulsifier, and the concentrate was diluted with water to the desired concentration.
# 1 ml of the preparation of the active compound was applied with a pipette to a filter paper disc of 7 cm diameter. The wet disc was placed over the orifice of a glass vessel containing 50 vinegar flies (Drosophila melanogaster) and covered with a glass plate.
# After the specified periods of time, the destruction was determined in %. 100% means that all the flies were killed, and 0% means that no flies were killed.
# The active compounds, the concentrations of the active compounds, the evaluation times and the degree of destruction can be seen from the following Table 1: […]
# [5] = system: caterpillars of the diamond-back moth (Plutella maculipennis); assay: Plutella test; assay type: in vivo; settings: 72 h, read-out: Degree of destruction in % after 3 days; for mortality at 0.001 %: active compound concentration 0.001 %; for mortality at 0.01 %: active compound concentration 0.01 %
# Experimental: as §1, §2, §3
# Cabbage leaves (Brassica oleracea) were sprayed with the preparation of the active compound until dew moist and were then infested with caterpillars of the diamond-back moth (Plutella maculipennis).
# After the specified periods of time, the degree of destruction was determined as a percentage: 100% means that all the caterpillars were killed, whereas 0% means that none of the caterpillars were killed.
# The active compounds, the concentrations of the active compounds, the evaluation times and the results can be seen from the following Table 2.
# insects and acarids = settings: prior-art compounds; cited from earlier work
# warm-blooded animals = settings: prior-art compounds; cited from earlier work
# [6] = active compound concentration 0.1 %, after 1 day
# [7] = active compound concentration 0.1 %, after 3 days
smiles,measurement,setting,value
"CCCSP(=S)(OCC)Oc1ccc(=O)[nH]n1 (stereo not drawn) [Compound 1, O-ethyl-S-n-propyl-O-[pyridaz-(6)-on-(3)-yl]-thionothiolphosphoric acid ester]",LD50 at 168 h,[1],100 to 250 mg/kg
"CCCSP(=S)(OCC)Oc1ccc(=O)n(CCC#N)n1 (stereo not drawn) [Compound 2, O-ethyl-S-n-propyl-O-[1-β-cyanoethyl-pyridaz-(6)-on-(3)-yl]-thionothiolphosphoric acid ester]",LD50 at 168 h,[1],250 to 500 mg/kg
same,mortality at 10 ppm,[2],100%
same,mortality at 30 ppm,[2],100%
same,mortality at 100 ppm,[2],100%
CCCSP(=S)(OCC)Oc1ccc(=O)n(C)n1 (stereo not drawn) [Compound 3],mortality at 0.01 %,[3],70%
same,mortality at 0.1 %,[3],100%
same,mortality at 0.01 %,[4]; after 1 day,100%
same,mortality at 0.1 %,[4]; [6],100%
same,LD50 at 168 h,[1],100 to 250 mg/kg
same,mortality at 10 ppm,[2],100%
same,mortality at 30 ppm,[2],100%
same,mortality at 100 ppm,[2],100%
C=CCn1nc(OP(=S)(OCC)SCCC)ccc1=O (stereo not drawn) [Compound 6],mortality at 0.01 %,[3],55%
same,mortality at 0.1 %,[3],100%
same,mortality at 0.01 %,[4]; after 1 day,100%
same,mortality at 0.1 %,[4]; [6],100%
same,LD50 at 168 h,[1],~500 mg/kg
C#CCn1nc(OP(=S)(OCC)SCCC)ccc1=O (stereo not drawn) [Compound 7],mortality at 0.01 %,[3],45%
same,mortality at 0.1 %,[3],100%
same,mortality at 0.01 %,[4]; after 1 day,100%
same,mortality at 0.1 %,[4]; [6],100%
same,LD50 at 168 h,[1],~250 mg/kg
CCCSP(=S)(OCC)Oc1ccc(=O)n(CCSCC)n1 (stereo not drawn) [Compound 8],mortality at 0.01 %,[3],80%
same,mortality at 0.1 %,[3],100%
same,mortality at 0.01 %,[4]; after 1 day,100%
same,mortality at 0.1 %,[4]; [6],100%
same,LD50 at 168 h,[1],250 to 500 mg/kg
CCCSP(=S)(OCC)Oc1ccc(=O)n(CC(=O)OCC)n1 (stereo not drawn) [Compound 9],LD50 at 168 h,[1],~500 mg/kg
CCCSP(=S)(OCC)Oc1ccc(=O)n(CCC(C)=O)n1 (stereo not drawn) [Compound 10],LD50 at 168 h,[1],250 to 500 mg/kg
CCCSP(=S)(OCC)Oc1ccc(=O)n(CCC(=O)OC)n1 (stereo not drawn) [Compound 11],LD50 at 168 h,[1],~250 mg/kg
CCCSP(=S)(OCC)Oc1ccc(=O)n(-c2ccccc2)n1 (stereo not drawn) [Compound 13],mortality at 0.01 %,[3],100%
same,mortality at 0.1 %,[3],100%
same,mortality at 0.01 %,[4]; after 1 day,100%
same,mortality at 0.1 %,[4]; [6],100%
same,LD50 at 168 h,[1],250 to 500 mg/kg
same,mortality at 0.001 %,[5]; after 3 days,95%
same,mortality at 0.01 %,[5]; after 3 days,100%
same,mortality at 0.1 %,[5]; [7],100%
CCCSP(=S)(OCC)Oc1ccc(=O)n(-c2cccc([N+](=O)[O-])c2)n1 (stereo not drawn) [Compound 14],LD50 at 168 h,[1],> 1000 mg/kg
same,mortality at 0.001 %,[5]; after 3 days,95%
same,mortality at 0.01 %,[5]; after 3 days,100%
same,mortality at 0.1 %,[5]; [7],100%
CCCSP(=S)(OCC)Oc1ccc(=O)n(-c2ccc(C)cc2)n1 (stereo not drawn) [Compound 15],LD50 at 168 h,[1],~500 mg/kg
same,mortality at 3 ppm,[2]; active compound concentration 3 ppm,> 50%
same,mortality at 10 ppm,[2],100%
same,mortality at 30 ppm,[2],100%
same,mortality at 100 ppm,[2],100%
CCCSP(=S)(OCC)Oc1ccc(=O)n(-c2ccc(Cl)cc2)n1 (stereo not drawn) [Compound 16],LD50 at 168 h,[1],> 1000 mg/kg
CCCSP(=S)(OCC)Oc1ccc(=O)n(-c2cccc(Cl)c2)n1 (stereo not drawn) [Compound 17],LD50 at 168 h,[1],> 1000 mg/kg
CCCSP(=S)(OCC)Oc1ccc(=O)n(C2CCS(=O)(=O)C2)n1 (stereo not drawn) [Compound 18],LD50 at 168 h,[1],~500 mg/kg
CCCSP(=S)(OCC)Oc1nn(CN2CCCC2)c(=O)c2ccccc12 (stereo not drawn) [Compound 19],mortality at 0.01 %,[4]; after 1 day,100%
same,mortality at 0.1 %,[4]; [6],100%
same,LD50 at 168 h,[1],100 to 250 mg/kg
CCCSP(=S)(OCC)Oc1nn(CN2CCCCC2)c(=O)c2ccccc12 (stereo not drawn) [Compound 20],mortality at 0.01 %,[3],80%
same,mortality at 0.1 %,[3],100%
same,LD50 at 168 h,[1],250 to 500 mg/kg
CCCSP(=S)(OCC)Oc1n[nH]c(=O)c2ccccc12 (stereo not drawn) [Compound 21],LD50 at 168 h,[1],~500 mg/kg
"CCOP(=S)(OCC)Oc1n[nH]c(=O)c2ccccc12 [Compound A, O,O-diethyl-O-[phthalaz-(8)-on-(3)-yl]-thionophosphoric acid ester]",mortality at 0.1 %,[3],0%
same,insecticidal and acaricidal properties,insects and acarids,good insecticidal and acaricidal properties
same,LD50 at 168 h,[1],~25 mg/kg
same,mortality at 0.1 %,[5]; [7],0%
same,toxicity to warm-blooded animals,warm-blooded animals,high toxicity to warm-blooded animals
"CCOP(=S)(OCC)Oc1ccc(=O)[nH]n1 [Compound B, O,O-diethyl-O-[pyridaz-(6)-on-(3)-yl]-thionophosphoric acid ester]",mortality at 0.1 %,[3],20%
same,insecticidal and acaricidal properties,insects and acarids,good insecticidal and acaricidal properties
same,LD50 at 168 h,[1],2.5 to 5 mg/kg
same,mortality at 0.001 %,[5]; after 3 days,0%
same,mortality at 0.01 %,[5]; after 3 days,80%
same,mortality at 0.1 %,[5]; [7],100%
same,toxicity to warm-blooded animals,warm-blooded animals,high toxicity to warm-blooded animals
same,mortality at 30 ppm,[2],< 50%
same,mortality at 300 ppm,[2]; active compound concentration 300 ppm,100%
"CCOP(=S)(OCC)Oc1ccc(=O)n(C)n1 [Compound C, O,O-diethyl-O-[1-methyl-pyridaz-(6)-on-(3)-yl]-thionophosphoric acid ester]",insecticidal and acaricidal properties,insects and acarids,good insecticidal and acaricidal properties
same,LD50 at 168 h,[1],5 to 10 mg/kg
same,toxicity to warm-blooded animals,warm-blooded animals,high toxicity to warm-blooded animals
"CCOP(=S)(OCC)Oc1ccc(=O)n(CCC#N)n1 [Compound D, O,O-diethyl-O-[1-β-cyanoethyl-pyridaz-(6)-on-(3)-yl]-thionophosphoric acid ester]",insecticidal and acaricidal properties,insects and acarids,good insecticidal and acaricidal properties
same,LD50 at 168 h,[1],10 to 25 mg/kg
same,toxicity to warm-blooded animals,warm-blooded animals,high toxicity to warm-blooded animals
"CCOC(=O)Cn1nc(OP(=S)(OCC)OCC)ccc1=O [Compound E, O,O-diethyl-O-[1-ethoxycarbonylmethyl-pyridaz-(6)-on-(3)-yl]-thionophosphoric acid ester, reference compound]",insecticidal and acaricidal properties,insects and acarids,good insecticidal and acaricidal properties
same,toxicity to warm-blooded animals,warm-blooded animals,high toxicity to warm-blooded animals
same,mortality at 10 ppm,[2],> 50%
same,mortality at 100 ppm,[2],100%
"CCOP(=S)(OCC)Oc1ccc(=O)n(-c2ccc(C)cc2)n1 [Compound F, O,O-diethyl-[1-p-methylphenyl-pyridaz-(6)-on-(3)-yl]-thionophosphoric acid ester, reference compound]",mortality at 0.01 %,[3],0%
same,mortality at 0.1 %,[3],40%
same,insecticidal and acaricidal properties,insects and acarids,good insecticidal and acaricidal properties
same,LD50 at 168 h,[1],50 to 100 mg/kg
same,toxicity to warm-blooded animals,warm-blooded animals,high toxicity to warm-blooded animals
CCOP(=S)(OCC)Oc1ccc(=O)n(CCC(C)=O)n1 [G],LD50 at 168 h,[1],10 to 25 mg/kg
same,mortality at 0.001 %,[5]; after 3 days,0%
same,mortality at 0.01 %,[5]; after 3 days,80%
same,mortality at 0.1 %,[5],100%
"CCOP(=S)(OCC)Oc1n[nH]c(=O)c2ccccc12 [known, reference compound]",mortality at 0.01 %,[4]; after 1 day,0%
same,mortality at 0.1 %,[4],100%
